{
  "source": "ChEMBL document CHEMBL4196082",
  "about": "“2-Aryl benzimidazoles: Synthesis, In vitro α-amylase inhibitory activity, and molecular docking study” (Eur J Med Chem, 2018)",
  "data": [
    {"target": "T1, Alpha amylase (Homo sapiens, UniProt P0DUB6)", "T1 sequence (P0DUB6 whole entry)": "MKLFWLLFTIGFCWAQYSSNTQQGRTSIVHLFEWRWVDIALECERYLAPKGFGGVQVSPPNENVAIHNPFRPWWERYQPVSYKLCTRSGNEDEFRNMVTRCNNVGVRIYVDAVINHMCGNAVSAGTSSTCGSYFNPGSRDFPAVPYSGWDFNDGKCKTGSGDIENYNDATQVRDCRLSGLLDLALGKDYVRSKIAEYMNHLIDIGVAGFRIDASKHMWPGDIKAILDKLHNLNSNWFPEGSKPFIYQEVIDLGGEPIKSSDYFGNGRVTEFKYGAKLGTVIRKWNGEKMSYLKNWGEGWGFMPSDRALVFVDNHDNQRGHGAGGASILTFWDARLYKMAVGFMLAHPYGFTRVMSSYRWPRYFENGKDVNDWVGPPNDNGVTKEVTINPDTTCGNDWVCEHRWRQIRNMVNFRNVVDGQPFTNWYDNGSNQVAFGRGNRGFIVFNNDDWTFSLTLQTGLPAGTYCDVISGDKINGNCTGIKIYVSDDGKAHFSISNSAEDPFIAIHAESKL", "assay": "Inhibition of alpha-amylase (unknown origin) using starch as substrate preincubated for 10 mins followed by substrate addition measured after 10 mins by dinitrosalicylic acid reagent-based assay", "units": {"IC50": "nM"}, "values": [
      {"smiles": "Cc1cc2nc(-c3cc(O)ccc3O)[nH]c2cc1C", "IC50": 2990},
      {"smiles": "COc1ccc(Br)c(-c2nc3cc(C)c(C)cc3[nH]2)c1O", "IC50": 2260},
      {"smiles": "COc1cc(-c2nc3cc(Cl)ccc3[nH]2)cc(OC)c1O", "IC50": 2520},
      {"smiles": "Oc1ccc(-c2nc3cc(F)ccc3[nH]2)c(O)c1O", "IC50": 2540},
      {"smiles": "COc1cc(Br)c(-c2nc3cc([N+](=O)[O-])ccc3[nH]2)cc1OC", "IC50": 1870},
      {"smiles": "COc1cc(-c2nc3cc([N+](=O)[O-])ccc3[nH]2)ccc1OC(C)=O", "IC50": 1730},
      {"smiles": "COc1cc(-c2nc3cc(Cl)ccc3[nH]2)cc(OC)c1Br", "IC50": 1620},
      {"smiles": "Oc1ccc(-c2nc3cc(F)ccc3[nH]2)c(O)c1", "IC50": 2980},
      {"smiles": "COc1cc(-c2nc3cc(Cl)ccc3[nH]2)ccc1OC(C)=O", "IC50": 1680},
      {"smiles": "Oc1c(Br)cc(Cl)cc1-c1nc2cc(Cl)ccc2[nH]1", "IC50": 2860},
      {"smiles": "COc1cc(Br)c(-c2nc3cc(C)c(C)cc3[nH]2)cc1OC", "IC50": 1480},
      {"smiles": "COc1ccc(-c2nc3cc(Cl)ccc3[nH]2)c(Cl)c1OC", "IC50": 1510},
      {"smiles": "COc1ccc(-c2nc3cc(F)ccc3[nH]2)c(F)c1", "IC50": 1590},
      {"smiles": "COc1ccc(Br)cc1-c1nc2cc(Cl)ccc2[nH]1", "IC50": 2620},
      {"smiles": "COc1cc(Br)c(-c2nc3cc(Cl)ccc3[nH]2)cc1OC", "IC50": 1730},
      {"smiles": "COc1ccc(-c2nc3cc(F)ccc3[nH]2)c(Cl)c1OC", "IC50": 2560},
      {"smiles": "COc1cc(-c2nc3cc(Cl)ccc3[nH]2)cc(I)c1O", "IC50": 1610},
      {"smiles": "COc1cccc(-c2nc3cc(C)c(C)cc3[nH]2)c1Cl", "IC50": 2840},
      {"smiles": "COc1ccc(-c2nc3cc(C)c(C)cc3[nH]2)c(F)c1", "IC50": 2780},
      {"smiles": "O=[N+]([O-])c1ccc2[nH]c(-c3cc(Cl)cc(Br)c3O)nc2c1", "IC50": 2870},
      {"smiles": "COc1cc(Br)c(-c2nc3cc(F)ccc3[nH]2)cc1OC", "IC50": 1570},
      {"smiles": "COc1cc(-c2nc3cc(F)ccc3[nH]2)ccc1OC(C)=O", "IC50": 1680},
      {"smiles": "COc1ccc(Br)cc1-c1nc2cc(F)ccc2[nH]1", "IC50": 2600},
      {"smiles": "COc1cc(Br)c(-c2nc3ccccc3[nH]2)cc1OC", "IC50": 1510},
      {"smiles": "Cc1cc2nc(-c3cc(Cl)cc(Cl)c3O)[nH]c2cc1C", "IC50": 2980},
      {"smiles": "COc1ccc(Br)c(-c2nc3ccccc3[nH]2)c1O", "IC50": 2480},
      {"smiles": "COc1cc(-c2nc3cc(C)c(C)cc3[nH]2)cc(I)c1O", "IC50": 1770},
      {"smiles": "COc1cc(-c2nc3cc(C)c(C)cc3[nH]2)cc(OC)c1Br", "IC50": 1590},
      {"smiles": "COc1ccc(-c2nc3cc([N+](=O)[O-])ccc3[nH]2)c(F)c1", "IC50": 2750},
      {"smiles": "COc1ccc(Br)c(-c2nc3cc(F)ccc3[nH]2)c1O", "IC50": 2170},
      {"smiles": "COc1cc(-c2nc3cc(F)ccc3[nH]2)cc(OC)c1O", "IC50": 2490},
      {"smiles": "O=[N+]([O-])c1ccc2[nH]c(-c3cc(Br)ccc3F)nc2c1", "IC50": 2310},
      {"smiles": "COc1cccc(-c2nc3cc([N+](=O)[O-])ccc3[nH]2)c1Cl", "IC50": 2780},
      {"smiles": "Oc1c(Br)cc(Cl)cc1-c1nc2ccccc2[nH]1", "IC50": 2850},
      {"smiles": "COc1cc(-c2nc3cc([N+](=O)[O-])ccc3[nH]2)cc(I)c1O", "IC50": 1720},
      {"smiles": "COc1cccc(-c2nc3cc(F)ccc3[nH]2)c1Cl", "IC50": 2620},
      {"smiles": "Cc1cc2nc(-c3cc(Cl)cc(Br)c3O)[nH]c2cc1C", "IC50": 2920},
      {"smiles": "Oc1c(Br)cc(Cl)cc1-c1nc2cc(F)ccc2[nH]1", "IC50": 2860},
      {"smiles": "COc1cccc(-c2nc3cc(Cl)ccc3[nH]2)c1Cl", "IC50": 2780},
      {"smiles": "Oc1c(Cl)cc(Cl)cc1-c1nc2cc(F)ccc2[nH]1", "IC50": 2870},
      {"smiles": "COc1ccc(Br)c(-c2nc3cc([N+](=O)[O-])ccc3[nH]2)c1O", "IC50": 2290},
      {"smiles": "COc1cccc(-c2nc3ccccc3[nH]2)c1Cl", "IC50": 2740},
      {"smiles": "COc1ccc(-c2nc3cc(C)c(C)cc3[nH]2)c(OC)c1OC", "IC50": 2300},
      {"smiles": "COc1ccc(-c2nc3cc(Cl)ccc3[nH]2)c(F)c1", "IC50": 2740},
      {"smiles": "COc1ccc(Br)c(-c2nc3cc(Cl)ccc3[nH]2)c1O", "IC50": 2210}
    ]}
  ]
}
